Structures are written as SMILES. Bounds are passed on as bounds.

For data set [1], the target named is T1, UCHL5 (Homo sapiens, UniProt Q9Y5K5).
T1 sequence (Q9Y5K5 1-329): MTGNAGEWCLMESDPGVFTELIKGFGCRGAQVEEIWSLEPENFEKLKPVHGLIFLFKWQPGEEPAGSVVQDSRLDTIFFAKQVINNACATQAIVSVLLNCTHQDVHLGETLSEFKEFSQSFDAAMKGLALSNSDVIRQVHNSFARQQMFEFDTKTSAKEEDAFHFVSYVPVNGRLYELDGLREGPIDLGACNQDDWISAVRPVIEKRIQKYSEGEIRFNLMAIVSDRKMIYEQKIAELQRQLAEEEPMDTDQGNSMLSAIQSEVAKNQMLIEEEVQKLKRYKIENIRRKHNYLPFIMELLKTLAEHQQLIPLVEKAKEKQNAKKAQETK
The data set is described as follows: Ub-VS labeling of lysates of exposed OPM-2 cells, UCHL5. It counts as cell-based. More on the design: endogenous in cells; host or cells: OPM-2 multiple myeloma cells. As to conditions: 0.5 μM, 3 hours. How it is done: (§1) Cell extract proteins were resolved by Tris-Acetate PAGE gels (Invitrogen, Carlsbad, CA) and transferred onto a polyvinylidene difluoride (PVDF) membrane for western blotting. For Ub-VS labeling, we lysed cell pellets from control or treated cells with buffer (50 mM HEPES pH 7.4, 250 mM sucrose, 10 mM MgCl2, 2 mM ATP, 1 mM DTT and 1%NP-40) on ice for 30 min and removed debris by centrifugation. We labeled 25 μg of protein with 1 μM Ub-VS for 30 min at 37 °C. We resolved samples by SDS-PAGE and performed immunoblotting. For HA-Ub-VS labeling, we pretreated purified 19S (5 nM) with DMSO or 2.5, 5, 10, 15 or 25μM 1570 for 10 min at room temperature, which followed with labeling with 1 μM HA-Ub-VS for 30 min at 37 °C and immunoblotting.

On the set-up of data set [2]: method as in PMID 25854145. As to conditions: cited from earlier work.
Data set [3] relates to MM cells. Kind of data set: Immunoblotting of polyubiquitinated proteins in MM cells. It counts as cell-based, human. As to conditions: 0.5 μM, 6 or 18 h. On the procedure:
as §1
(In general: Immunoblotting shows a protein as a band on a membrane.)

Data set [4] addresses T2, USP14 (Homo sapiens, UniProt P54578). The data set is described as follows: Cellular thermal shift assay (CETSA) in OPM-2 cells. It counts as cell-based. The arrangement: endogenous in cells; host or cells: OPM-2 multiple myeloma cells. As to conditions: 1 μM, 1 hour. How it is done:
For CETSA, the same amount of cells as one sample was treated with required condition and collected as described. Each sample was suspended in PBS supplemented with protease inhibitors after they were washed in PBS. And then these samples were heated at 51, 53, or 55 °C for 3 min. Immediately after heating, tubes were removed and incubated at room temperature for 3 min, and then snap-frozen in liquid nitrogen. Samples were freeze-thawed twice and centrifuged at 20,000 g for 20 min at +4 °C and supernatants were analysed by Western-blotting.

The target in data set [5] is 26S proteasome (Homo sapiens, UniProt P54578+Q9Y5K5). Kind of data set: SPR binding to 26S proteasomes, CM7 chip. The text has this: A BIACORE T200 was used for characterization of the interaction between compounds and USP14, UCHL5 and 26S proteasome. The standard BIACORE protocols were used for NTA chip (Ni/His-tag immobilization) and CM7 chip for compound interaction studies with slight modification described below. The x6 his-tagged USP14 and UCHL5 proteins were coupled to a Series S NTA BIACORE sensor chip in the BIACORE T200 using the his-tags for adherence of the proteins to the surface and an amine coupling procedure for covalent attachment to the chip surface. NTA chip was cleaned using three 500 μM EDTA injections followed by an injection of 500 μM Ni^2+ and activation of the chip surface with EDC/NHS injection according to BIACORE standard methods. Each chip has four separate areas, which were handled separately during the immobilization procedure. Area 1 was used as blank reference surface, area 2–4 was coupled with investigated recombinant proteins or complexes. Proteins were diluted in running buffer (10 mM HEPES, 150 mM NaCl, 0,005% Tween 20) to typically 10 μg/ml before injection(1 mL) over the prepared surfaces. […] The immobilization procedure was followed by injections of compound concentration series of VLX1570. […] Rmax and KD were calculated using Langmuir binding isotherms as provided in the Biacore software.

Data set [6] concerns OPM-Bz^R cells. Kind of data set: 3H-VLX1570 cellular uptake, OPM-Bz^R versus parental cells. Particulars: OPM-Bz^R cells compared to parental cells.
In data set [7] the test system is RPMI8226. The data set is described as follows: MTT antiproliferative assay, RPMI8226. It is filed as cell-based. As to conditions: Homo sapiens, RPMI-8226, 72 hours. How it is done:
Cell viability was monitored by the MTT (3-(4,5-dimethylthiazol-2-yl)-2,5-diphenyltetrazolium bromide) assay. For the MTT assay, cells were suspended at 5 × 10^5 cells/ml, and 100 μl aliquots were dispended into 96-well microtiter plates and exposed to drugs as described using DMSO control. At the end of incubations, 10 μl of a stock solution of 5 mg/ml MTT (3-(4,5-dimethylthiazol-2-yl)-2,5-diphenyltetrazolium bromide), was added into each well, and the plates were incubated 4 hours at 37 °C. Formazan crystals were dissolved with 100 μl of 10% SDS/10 mM HCl solution overnight at 37 °C. Since MTT assays are affected by mitochondrial activity, and since OXPHOS is affected by VLX1570 (unpublished observation), we used the acid phosphatase method[49] to determine cell viability in some experiments. After washing twice with PBS, cells were lysed in 100 μl of 0.1 M sodium acetate, 0,1% Triton X-100, p-nitrophenylphosphate (Pierce Biotechnology Inc, Rockford, IL) and incubated for 90 min at 37 °C. At the end of the incubation, 10 μl NaOH was added to each well and A405 was determined.
(Tetrazolium assays rely on reduction of a dye to a coloured formazan, in cell work by metabolically active cells.)

For data set [8], the system named is proteasome DUB activity. The arrangement: method as in PMID 25854145. Particulars: in cells; read-out: in vivo IC50 for inhibition of proteasome DUB activity and induction of apoptosis; cited from earlier work.
Data set [9] deals with 26S proteasome and immunoproteasome. Kind of data set: Proteasome and immunoproteasome proteolytic activity in OPM-2 cells. It is filed as cell-based, human. As to conditions: 0.5 μM, 3 hours.
For data set [10], the target named is T3, UCHL5 (Homo sapiens, UniProt Q9Y5K5).
T3 construct: purchased Boston Biochem E-366
The data set is described as follows: HA-Ub-VS active-site labeling of purified 19S, UCHL5. It is filed as biochemical. Particulars: purified 19S RP; compared with USP14. On the procedure:
as §1

In data set [11] the target is T2, USP14. The data set is described as follows: HA-Ub-VS active-site labeling of purified 19S, USP14. It counts as biochemical. More on the design: purchased Boston Biochem E-366. Particulars: purified 19S RP; 2.5 μM. How it is done:
as §1

Sequence of 26S proteasome (P54578 whole entry, one chain of several): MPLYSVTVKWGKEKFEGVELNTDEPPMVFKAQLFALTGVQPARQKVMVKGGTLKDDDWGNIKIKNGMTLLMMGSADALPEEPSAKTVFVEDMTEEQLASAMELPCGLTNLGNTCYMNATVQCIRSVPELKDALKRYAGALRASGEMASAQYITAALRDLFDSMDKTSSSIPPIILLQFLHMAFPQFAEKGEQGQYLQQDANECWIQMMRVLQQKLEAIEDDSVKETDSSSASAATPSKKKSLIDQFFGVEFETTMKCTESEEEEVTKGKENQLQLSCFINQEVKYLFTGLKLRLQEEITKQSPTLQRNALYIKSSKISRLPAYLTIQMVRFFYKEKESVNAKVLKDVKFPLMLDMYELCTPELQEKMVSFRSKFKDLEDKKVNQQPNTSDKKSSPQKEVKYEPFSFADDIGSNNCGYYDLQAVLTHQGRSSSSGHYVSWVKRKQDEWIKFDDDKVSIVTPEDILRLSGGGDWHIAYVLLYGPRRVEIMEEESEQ
Sequence of 26S proteasome (Q13200 whole entry partner, one chain of several): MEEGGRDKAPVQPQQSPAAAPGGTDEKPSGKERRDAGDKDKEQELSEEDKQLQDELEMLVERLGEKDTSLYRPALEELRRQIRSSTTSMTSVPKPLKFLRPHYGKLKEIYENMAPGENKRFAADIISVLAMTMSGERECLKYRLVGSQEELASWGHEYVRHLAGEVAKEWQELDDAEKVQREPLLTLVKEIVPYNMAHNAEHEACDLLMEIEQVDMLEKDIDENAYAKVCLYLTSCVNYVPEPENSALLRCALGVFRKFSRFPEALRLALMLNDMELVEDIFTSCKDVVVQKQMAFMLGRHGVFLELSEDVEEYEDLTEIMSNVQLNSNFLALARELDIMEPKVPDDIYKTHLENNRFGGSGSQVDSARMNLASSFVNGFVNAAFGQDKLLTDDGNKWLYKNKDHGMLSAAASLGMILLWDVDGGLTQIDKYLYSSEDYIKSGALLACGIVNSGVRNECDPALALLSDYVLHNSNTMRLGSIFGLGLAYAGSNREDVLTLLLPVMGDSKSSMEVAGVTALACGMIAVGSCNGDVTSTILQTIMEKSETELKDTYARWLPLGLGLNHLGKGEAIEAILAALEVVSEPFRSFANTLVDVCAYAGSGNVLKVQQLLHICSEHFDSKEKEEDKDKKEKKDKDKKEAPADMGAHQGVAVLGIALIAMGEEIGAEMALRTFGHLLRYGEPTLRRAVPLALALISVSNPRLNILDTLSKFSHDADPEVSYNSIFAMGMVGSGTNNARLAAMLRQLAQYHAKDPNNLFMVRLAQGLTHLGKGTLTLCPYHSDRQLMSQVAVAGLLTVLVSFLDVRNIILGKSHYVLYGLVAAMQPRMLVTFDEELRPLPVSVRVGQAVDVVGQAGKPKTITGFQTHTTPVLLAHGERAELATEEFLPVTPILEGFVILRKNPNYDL
T2 sequence (P54578 whole entry): as the sequence (P54578 whole entry, one chain of several) above

With `C=CC(=O)N1CC/C(=C\c2ccc(F)c([N+](=O)[O-])c2)C(=O)/C(=C/c2ccc(F)c([N+](=O)[O-])c2)C1` [VLX1570], the “UCHL5 inhibition in exposed cells” value in data set [1] is recorded as “weak in comparison”. Further, in [2], the “solubility compared to b-AP15” value is recorded as “improved solubility”. Moreover, in data set [3], the “accumulation of polyubiquitinated proteins” value was “polyubiquitinated proteins accumulated”. Also, the figures for the “thermostabilization of USP14” value in data set [4] and in [4] (53°–55 °C) were “thermostabilized” and 2.5 fold control, respectively. For the same compound, the “VLX1570 binding Relative RU × 100 +/− S.D.” value in [5] (immobilised 26S proteasome) was found to be 0.21 ± 0.09; in data set [5] (immobilised 26S proteasome pre-incubated with Ub-VS), 0.04 ± 0.01. Also, the “cellular uptake of radiolabeled drug” value in data set [6] is reported as “decreased uptake”. The IC50 – broadly, the midpoint of a concentration-inhibition curve – is 74 ± 2 nM in data set [7] and less than 1000 nM in data set [8]. For the same compound, the “chymotryptic, tryptic and caspase-like activity of 26S proteasome and chymotryptic activity of immunoproteasome” value in data set [9] is “no change”. Further, the “inhibition of UCHL5 (Ub-VS labeling)” value in [10] was “required higher drug concentrations”. For the same compound, in [11], the “inhibition of USP14 activity (Ub-VS labeling)” value is “strongly inhibited”.

Source of the values: publication PMC4893612 (Scientific Reports, 2016).
